What was measured:
[1] = target: T1, EGF binding to human A431 cells (Homo sapiens, UniProt P00533); test: Epidermal Growth Factor (EGF) radioligand binding assay
T1 construct: endogenous in cells; host or cells: A431
Protocol: (§1) Compounds 1633-00382 and 1633-02177 were tested for selectivity by determining their effect on the following assays: • Basic Fibroblast Growth Factor (FGF)-Induced cell proliferation (Gospodarowicz D, Brown K D, Birdwell C R & Zetter B R (1978) J. Cell. Biol. 77: 774-788); • Epidermal Growth Factor (EGF) radioligand binding assay (Dittadi R, Gion M, Brazzale A., Bruscagnin G. (1990) Clin. Chem. 36: 849-854; Massague J (1983) J. Biol. Chem. 258:13614-13620); and • Platelet-Derived Growth Factor (PDGF) radioligand binding assay (Williams L T, Tremble P M, Lavin M F & Sunday M E (1984) J. Biol. Chem. 259 5287-5294

[2] = target: T2, rhVEGF165-biotin (Homo sapiens, UniProt P15692); test: VEGF-Binding ELISA (dose-response); settings: Table 6
T2 sequence (P15692 27-191 isoform P15692-4): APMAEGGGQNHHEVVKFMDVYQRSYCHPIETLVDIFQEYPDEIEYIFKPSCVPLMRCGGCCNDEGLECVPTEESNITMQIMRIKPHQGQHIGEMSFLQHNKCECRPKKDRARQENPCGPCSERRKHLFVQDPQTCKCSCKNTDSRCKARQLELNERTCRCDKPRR
Protocol: The potency of test substances as a VEGF-neutralising moiety is measured in an ELISA format. This assay measures the solution-phase interaction between rhVEGF165-biotin and test sample. Unbound VEGF165-biotin is then immobilised on a solid-phase anti-hVEGF antibody (R&D systems MAB293). The biotin signal is detected with streptavidin-alkaline phosphatase, which gives a colorimetric signal when incubated with p-nitrophenyl phosphate. Plates are read in a spectrophotometer at 405 nm.
Any test compound that binds to VEGF165-biotin and prevents it from binding to the antibody will lower the color signal and be recognized as a “hit”. Hits were defined as compounds that show>60% inhibition.
VEGF165-biotin+assay buffer ? 0% inhibition
Soluble VEGF receptor (sflt @ 4 nM) ? 70% inhibition
The primary screening of all library compounds was done at a compound concentration of 50 μM, followed by measuring dose-response effects of “hits” between 0.05 and 500 μM for the calculation of IC50 values.
The compounds were dissolved in DMSO and it was shown that the solvent has no effect on the assay at this concentration.

[3] = test system: human umbilical vein endothelial cells (HUVEC); test: HUVEC proliferation assay co-stimulated with rhVEGF; assay type: cell-based; settings: Homo sapiens, HUVEC, Table 6
Protocol: The HUVEC assay measures the potency of test substances to inhibit in vitro proliferation of human umbilical vein endothelial cells (HUVEC) when co-stimulated with recombinant human vascular endothelial growth factor (rhVEGF).
HUVEC are grown under defined conditions (EGM-2 medium, 37° C., 5% CO2 and 95% humidity). They are seeded into 48-well plates using EBM medium with only 1% serum and incubated for 24 h. This is to ensure that cells are not stimulated before treatment with VEGF and test compound.
Test compounds are diluted in medium to concentrations between 0.05 and 50 μM and dosed together with VEGF165 at 12 ng/ml. This VEGF concentration was determined in a VEGF-dose-response curve to be just sub-optimal for maximum cell proliferation. Cells are incubated for 48 h at above conditions and viable cell density is measured using a tetrazolium compound (MTS). Viable cells reduce MTS into a soluble formazan product, which has an absorbance maximum at 490 nm. The absorbance is directly proportional to cell density.
EBM+1% serum (no VEGF) ? Minimum or Blank
EBM+1% serum (12 ng/ml) ? Maximum

[4] = test system: PDGF binding to mouse 3T3 cells; test: Platelet-Derived Growth Factor (PDGF) radioligand binding assay
Protocol: as §1

[5] = test system: basic FGF; test: Basic Fibroblast Growth Factor (FGF)-induced cell proliferation; assay type: cell-based
Protocol: as §1

[6] = ***re-tested in full-concentration response assays

T1 sequence (P00533 25-1210): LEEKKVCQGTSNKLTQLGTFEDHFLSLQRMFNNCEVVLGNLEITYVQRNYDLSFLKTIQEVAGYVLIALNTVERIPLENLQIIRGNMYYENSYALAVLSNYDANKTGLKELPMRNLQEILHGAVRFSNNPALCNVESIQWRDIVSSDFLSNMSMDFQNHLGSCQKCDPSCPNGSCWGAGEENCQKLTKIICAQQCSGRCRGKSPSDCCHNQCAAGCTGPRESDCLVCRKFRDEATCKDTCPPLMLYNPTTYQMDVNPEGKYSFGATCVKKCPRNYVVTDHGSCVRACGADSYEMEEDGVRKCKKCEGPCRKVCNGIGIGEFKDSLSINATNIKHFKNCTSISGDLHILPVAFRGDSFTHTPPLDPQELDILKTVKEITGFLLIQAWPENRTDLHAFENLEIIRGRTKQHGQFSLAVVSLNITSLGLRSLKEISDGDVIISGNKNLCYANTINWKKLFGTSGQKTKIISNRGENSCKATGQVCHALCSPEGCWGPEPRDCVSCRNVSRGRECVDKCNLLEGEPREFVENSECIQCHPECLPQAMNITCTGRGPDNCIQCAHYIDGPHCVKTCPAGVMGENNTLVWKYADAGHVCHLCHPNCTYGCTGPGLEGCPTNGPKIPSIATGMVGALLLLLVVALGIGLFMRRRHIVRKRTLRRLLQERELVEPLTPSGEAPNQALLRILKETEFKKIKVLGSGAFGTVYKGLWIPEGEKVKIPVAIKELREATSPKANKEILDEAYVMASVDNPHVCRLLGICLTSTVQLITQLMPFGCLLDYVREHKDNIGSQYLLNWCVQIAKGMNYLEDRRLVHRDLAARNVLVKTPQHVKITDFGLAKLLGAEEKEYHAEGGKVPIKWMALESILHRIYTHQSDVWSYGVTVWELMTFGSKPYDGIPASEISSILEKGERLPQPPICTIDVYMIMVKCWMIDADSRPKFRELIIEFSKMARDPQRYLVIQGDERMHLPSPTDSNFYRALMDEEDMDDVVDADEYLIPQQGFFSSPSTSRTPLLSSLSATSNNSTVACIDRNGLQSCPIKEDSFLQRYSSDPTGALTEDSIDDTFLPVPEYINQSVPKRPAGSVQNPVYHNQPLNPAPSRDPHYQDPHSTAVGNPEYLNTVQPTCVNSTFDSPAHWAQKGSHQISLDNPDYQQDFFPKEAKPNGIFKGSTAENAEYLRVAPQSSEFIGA

Row | SMILES | inhibition of EGF binding [1] | IC50 [2, 6] [µM] | IC50 ([2]; **tested after re-synthesised) [µM] | IC50 ([2]; *re-test 3 months later) [µM] | IC50 ([2]; first test (unmarked value)) [µM] | IC50 [3, 6] [µM] | IC50 ([3]; **tested after re-synthesised) [µM] | IC50 ([3]; *re-test 3 months later) [µM] | IC50 ([3]; first test (unmarked value)) [µM] | inhibition of PDGF binding [4] | IC50 ([5]; Fibroblast, significant anti-proliferative activity, estimated value, read-out: anti-proliferative activity against basic FGF, estimated value) [µM] | cytotoxicity ([5]; at 10 μM)
1 | NC(=O)c1ccc(Cl)c(NC(=O)c2csc(C3CCN(C(=O)CSc4ncccn4)CC3)n2)c1 [Compound 1633-00382] | did not inhibit | 1 | 4 | 3.49 | 0.655 | 12 | 20 | 16 | 0.938 | did not inhibit | – | –
2 | CN(C)c1cccc(C(=O)N2CCC(c3nc(C(=O)Nc4cc(CC(N)=O)ccc4Cl)cs3)CC2)c1 [Compound 1633-02177] | did not inhibit | – | 18 | – | 12 | – | 0.478 | – | 0.712 | did not inhibit | 0.406 | moderate but not significant cytotoxicity

From patent US20060135501A1, “Piperidinyl-thiazole carboxylic acid derivatives as angiogenesis inhibitors” (priority 2002, published 2006)
